Reference: patent US12336981B2, “Compounds and compositions for the inhibition of NAMPT” (Valo Health, Inc., priority 2010, dated 2025)
Like-named read-outs stand apart in the source and are kept apart here.

Experiments:
NAMPT = target: T1, NAMPT (Homo sapiens, UniProt P43490); experiment: Biochemical inhibition assay: NAMPT enzymatic reaction, NMN quantified by mass spectrometry; conditions: NAMPT enzymatic reaction; read-out: Biochem IC50
T1 construct: His tag; host or cells: E. coli
Procedure, shortened: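 Inhibition of E. coli-expressed His-tagged human NAMPT, measured as NMN formation by mass spectrometry after a 30 min room-temperature reaction containing 1 μM NAM, 100 μM PRPP and 2.5 mM ATP.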

A2780 cells = experiment: In-vitro cell proliferation assay (SRB), A2780 cells; type: cell-based; conditions: Homo sapiens, A2780, 72 h, A2780 cells, 72 hours, read-out: A2780 IC50
Procedure, shortened: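 SRB read-out: 6% TCA fix 1 h at 4° C., stain, Tris solubilize, A570. Media-only background subtracted; % inhibition from two compound concentrations.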

T1 sequence (P43490 whole entry): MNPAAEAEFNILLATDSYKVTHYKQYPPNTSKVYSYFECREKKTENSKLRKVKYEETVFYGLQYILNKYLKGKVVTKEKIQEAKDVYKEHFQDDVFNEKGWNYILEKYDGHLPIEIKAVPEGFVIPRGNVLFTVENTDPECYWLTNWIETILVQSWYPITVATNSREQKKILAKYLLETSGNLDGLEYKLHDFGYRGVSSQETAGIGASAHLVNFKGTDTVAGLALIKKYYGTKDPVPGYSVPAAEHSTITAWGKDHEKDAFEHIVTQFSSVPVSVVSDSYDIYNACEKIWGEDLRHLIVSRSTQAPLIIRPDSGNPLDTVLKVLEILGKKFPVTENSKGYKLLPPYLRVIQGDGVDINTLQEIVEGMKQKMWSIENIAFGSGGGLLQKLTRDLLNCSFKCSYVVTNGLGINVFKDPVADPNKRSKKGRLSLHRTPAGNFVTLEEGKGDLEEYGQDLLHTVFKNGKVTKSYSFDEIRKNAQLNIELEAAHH

Row | SMILES | IC50 (NAMPT) | IC50 (A2780 cells; SRB assay) | IC50 (A2780 cells; SRB)
1 | COc1ccc(S(=O)(=O)c2ccc(CNC(=O)c3cc4cnccc4[nH]3)cc2)cc1F [N-({4-[(3-fluoro-4-methoxybenzene)sulfonyl]phenyl}methyl)-1H-pyrrolo[3,2-c]pyridine-2-carboxamide] | 5 nM | 4 nM | –
2 | COc1ccc(S(=O)(=O)c2ccc(CNC(=O)c3ccc4nccn4c3)cc2)cc1F [N-({4-[(3-fluoro-4-methoxybenzene)sulfonyl]phenyl}methyl)imidazo[1,2-a]pyridine-6-carboxamide] | 5.95 nM | – | 2.89 nM
3 | COc1ccc(S(=O)(=O)c2ccc(CNC(=O)c3cnc4nccn4c3)cc2)cc1F [N-({4-[(3-fluoro-4-methoxybenzene)sulfonyl]phenyl}methyl)imidazo[1,2-a]pyrimidine-6-carboxamide] | 1.7 nM | – | 8.3 nM
4 | COc1ccc(S(=O)(=O)c2ccc(CNC(=O)c3cc4ccncc4s3)cc2)cc1F [N-({4-[(3-fluoro-4-methoxybenzene)sulfonyl]phenyl}methyl)thieno[2,3-c]pyridine-2-carboxamide] | 5 nM | 2.5 nM | –
5 | Cc1ccc(S(=O)(=O)c2ccc(CNC(=O)c3cc4cnccc4[nH]3)cc2)cc1F [N-({4-[(3-fluoro-4-methylbenzene)sulfonyl]phenyl}methyl)-1H-pyrrolo[3,2-c]pyridine-2-carboxamide] | 8 nM | 6 nM | –
6 | Cc1ccc(S(=O)(=O)c2ccc(CNC(=O)c3ccc4nccn4c3)cc2)cc1F [N-({4-[(3-fluoro-4-methylbenzene)sulfonyl]phenyl}methyl)imidazo[1,2-a]pyridine-6-carboxamide] | 13.3 nM | – | 3.78 nM
7 | Cc1ccc(S(=O)(=O)c2ccc(CNC(=O)c3cc4ccncc4s3)cc2)cc1F [N-({4-[(3-fluoro-4-methylbenzene)sulfonyl]phenyl}methyl)thieno[2,3-c]pyridine-2-carboxamide] | 3 nM | 2.8 nM | –
8 | CCCOc1ccc(S(=O)(=O)c2ccc(CNC(=O)c3cnc4[nH]ncc4c3)cc2)cc1F [N-({4-[(3-fluoro-4-propoxybenzene)sulfonyl]phenyl}methyl)-1H-pyrazolo[3,4-b]pyridine-5-carboxamide] | 11.6 nM | – | 6.5 nM
9 | COc1cc(F)cc(S(=O)(=O)c2ccc(CNC(=O)c3cc4ccncc4o3)cc2)c1 [N-({4-[(3-fluoro-5-methoxybenzene)sulfonyl]phenyl}methyl)furo[2,3-c]pyridine-2-carboxamide] | 17.4 nM | – | 3.3 nM
10 | Cc1cc(F)cc(S(=O)(=O)c2ccc(CNC(=O)c3ccc4nccn4c3)cc2)c1 [N-({4-[(3-fluoro-5-methylbenzene)sulfonyl]phenyl}methyl)imidazo[1,2-a]pyridine-6-carboxamide] | 2.7 nM | – | 0.6 nM
11 | O=C(NCc1ccc(S(=O)(=O)c2cccc(F)c2)cc1)c1cc2cnccc2[nH]1 [N-({4-[(3-fluorobenzene)sulfonyl]phenyl}methyl)-1H-pyrrolo[3,2-c]pyridine-2-carboxamide] | 9 nM | 10 nM | –
12 | O=C(NCc1ccc(S(=O)(=O)c2cccc(F)c2)cc1)c1cc2ccncc2o1 [N-({4-[(3-fluorobenzene)sulfonyl]phenyl}methyl)furo[2,3-c]pyridine-2-carboxamide] | 5.8 nM | – | 14.5 nM
13 | O=C(NCc1ccc(S(=O)(=O)c2cccc(F)c2)cc1)c1ccc2nccn2c1 [N-({4-[(3-fluorobenzene)sulfonyl]phenyl}methyl)imidazo[1,2-a]pyridine-6-carboxamide] | 22.1 nM | – | 12.2 nM
14 | O=C(NCc1ccc(S(=O)(=O)c2cccc(F)c2)cc1)c1cc2ccncc2s1 [N-({4-[(3-fluorobenzene)sulfonyl]phenyl}methyl)thieno[2,3-c]pyridine-2-carboxamide] | 3 nM | 3.3 nM | –
15 | COc1cccc(NS(=O)(=O)c2ccc(CNC(=O)c3cc4cnccc4[nH]3)cc2)c1C [N-({4-[(3-methoxy-2-methylphenyl)sulfamoyl]phenyl}methyl)-1H-pyrrolo[3,2-c]pyridine-2-carboxamide] | 30 nM | 6 nM | –
16 | COc1cc(S(=O)(=O)c2ccc(CNC(=O)c3cnc4[nH]ncc4c3)cc2)ccc1C [N-({4-[(3-methoxy-4-methylbenzene)sulfonyl]phenyl}methyl)-1H-pyrazolo[3,4-b]pyridine-5-carboxamide] | 3.6 nM | – | 3.4 nM
17 | COc1cccc(S(=O)(=O)c2ccc(CNC(=O)c3cc4cnccc4[nH]3)cc2)c1 [N-({4-[(3-methoxybenzene)sulfonyl]phenyl}methyl)-1H-pyrrolo[3,2-c]pyridine-2-carboxamide] | 7 nM | 4 nM | –
18 | COc1cccc(S(=O)(=O)c2ccc(CNC(=O)c3ccc4nccn4c3)cc2)c1 [N-({4-[(3-methoxybenzene)sulfonyl]phenyl}methyl)imidazo[1,2-a]pyridine-6-carboxamide] | 4.97 nM | – | 2.45 nM

Row | SMILES | IC50 (NAMPT) | IC50 (A2780 cells; SRB assay) | IC50 (A2780 cells; SRB)
19 | COc1cccc(S(=O)(=O)c2ccc(CNC(=O)c3cnc4nccn4c3)cc2)c1 [N-({4-[(3-methoxybenzene)sulfonyl]phenyl}methyl)imidazo[1,2-a]pyrimidine-6-carboxamide] | 2 nM | – | 12.4 nM
20 | COc1cccc(S(=O)(=O)c2ccc(CNC(=O)c3cc4ccncc4s3)cc2)c1 [N-({4-[(3-methoxybenzene)sulfonyl]phenyl}methyl)thieno[2,3-c]pyridine-2-carboxamide] | 5 nM | 2.6 nM | –
21 | Cc1cccc(S(=O)(=O)c2ccc(CNC(=O)c3cc4cnccc4[nH]3)cc2)c1 [N-({4-[(3-methylbenzene)sulfonyl]phenyl}methyl)-1H-pyrrolo[3,2-c]pyridine-2-carboxamide] | 9 nM | 4 nM | –
22 | Cc1cccc(S(=O)(=O)c2ccc(CNC(=O)c3cc4ccncc4o3)cc2)c1 [N-({4-[(3-methylbenzene)sulfonyl]phenyl}methyl)furo[2,3-c]pyridine-2-carboxamide] | 2.3 nM | – | 5.3 nM
23 | Cc1cccc(S(=O)(=O)c2ccc(CNC(=O)c3ccc4nccn4c3)cc2)c1 [N-({4-[(3-methylbenzene)sulfonyl]phenyl}methyl)imidazo[1,2-a]pyridine-6-carboxamide] | 8.12 nM | – | 6.39 nM
24 | Cc1cccc(S(=O)(=O)c2ccc(CNC(=O)c3cc4ccncc4s3)cc2)c1 [N-({4-[(3-methylbenzene)sulfonyl]phenyl}methyl)thieno[2,3-c]pyridine-2-carboxamide] | 4 nM | 2.3 nM | –
25 | O=C(NCc1ccc(S(=O)(=O)c2cccc(-c3ccccc3)c2)cc1)c1ccc2ncsc2c1 [N-({4-[(3-phenylbenzene)sulfonyl]phenyl}methyl)-1,3-benzothiazole-6-carboxamide] | 18.5 nM | – | 1000 to 10000 nM
26 | O=C(NCc1ccc(S(=O)(=O)c2cccc(-c3ccccc3)c2)cc1)c1cc2ccncc2o1 [N-({4-[(3-phenylbenzene)sulfonyl]phenyl}methyl)furo[2,3-c]pyridine-2-carboxamide] | 13.7 nM | – | 23.4 nM
27 | O=C(NCc1ccc(S(=O)(=O)CCCc2ccccc2)cc1)c1cc2cnccc2[nH]1 [N-({4-[(3-phenylpropane)sulfonyl]phenyl}methyl)-1H-pyrrolo[3,2-c]pyridine-2-carboxamide] | 14 nM | – | 78 nM
28 | CCCOc1cccc(S(=O)(=O)c2ccc(CNC(=O)c3cnc4[nH]ncc4c3)cc2)c1 [N-({4-[(3-propoxybenzene)sulfonyl]phenyl}methyl)-1H-pyrazolo[3,4-b]pyridine-5-carboxamide] | 30.4 nM | – | 41 nM
29 | NS(=O)(=O)c1cccc(S(=O)(=O)c2ccc(CNC(=O)c3cnc4[nH]ncc4c3)cc2)c1 [N-({4-[(3-sulfamoylbenzene)sulfonyl]phenyl}methyl)-1H-pyrazolo[3,4-b]pyridine-5-carboxamide] | 30.1 nM | – | 100 to 1000 nM
30 | COc1cc(F)c(F)cc1S(=O)(=O)c1ccc(CNC(=O)c2cc3cnccc3[nH]2)cc1 [N-({4-[(4,5-difluoro-2-methoxybenzene)sulfonyl]phenyl}methyl)-1H-pyrrolo[3,2-c]pyridine-2-carboxamide] | 14 nM | 6 nM | –
31 | COc1cc(F)c(F)cc1S(=O)(=O)c1ccc(CNC(=O)c2ccc3nccn3c2)cc1 [N-({4-[(4,5-difluoro-2-methoxybenzene)sulfonyl]phenyl}methyl)imidazo[1,2-a]pyridine-6-carboxamide] | 28.1 nM | – | 6.8 nM
32 | COc1cc(F)c(F)cc1S(=O)(=O)c1ccc(CNC(=O)c2cc3ccncc3s2)cc1 [N-({4-[(4,5-difluoro-2-methoxybenzene)sulfonyl]phenyl}methyl)thieno[2,3-c]pyridine-2-carboxamide] | 5 nM | 2.9 nM | –
33 | CC(=O)c1ccc(S(=O)(=O)c2ccc(CNC(=O)c3cc4ccncc4s3)cc2)cc1 [N-({4-[(4-acetylbenzene)sulfonyl]phenyl}methyl)thieno[2,3-c]pyridine-2-carboxamide] | 4 nM | 2.5 nM | –
34 | CCCCOc1ccc(S(=O)(=O)c2ccc(CNC(=O)c3cnc4[nH]ncc4c3)cc2)c(C)c1 [N-({4-[(4-butoxy-2-methylbenzene)sulfonyl]phenyl}methyl)-1H-pyrazolo[3,4-b]pyridine-5-carboxamide] | 70.9 nM | – | 68.8 nM
35 | CCCCOc1ccc(S(=O)(=O)c2ccc(CNC(=O)c3cc4ccncc4s3)cc2)cc1F [N-({4-[(4-butoxy-3-fluorobenzene)sulfonyl]phenyl}methyl)thieno[2,3-c]pyridine-2-carboxamide] | 4.7 nM | – | 12.6 nM
36 | CCCCOc1ccc(S(=O)(=O)c2ccc(CNC(=O)c3cnc4[nH]ncc4c3)cc2)cc1 [N-({4-[(4-butoxybenzene)sulfonyl]phenyl}methyl)-1H-pyrazolo[3,4-b]pyridine-5-carboxamide] | 27.5 nM | – | 22.5 nM
